Data from the supplement of paper PMC10307832.

Assays:
Experiment in all cases: relative viability (nuclei count vs DMSO), 5 days (fraction); higher = more cells survive
Veliparib + Pictilisib = compound: C[C@]1(c2nc3c(C(N)=O)cccc3[nH]2)CCCN1 [Veliparib] + CS(=O)(=O)N1CCN(Cc2cc3nc(-c4cccc5[nH]ncc45)nc(N4CCOCC4)c3s2)CC1 [Pictilisib] (partner 1 µM)
Summary of the method: (§1)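 Five library-drug doses in √10 steps were combined with a fixed anchor-drug dose, or a single drug was given alone, by pin tool to lung cancer cell lines in 1536-well plates the day after seeding. Nuclei were stained and counted after 5 days. Relative viability is the nuclei count in treated wells over that in vehicle wells, taken as the median of duplicate plates.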

[1] = compound: COC1=CC=C(C=C1)CN2C=CC3=C2C=C(C=C3)C(=O)NO + COc1cc2c(Oc3ccc(NC(=O)C4(C(=O)Nc5ccc(F)cc5)CC4)cc3F)ccnc2cc1OCCCN1CCOCC1 [Foretinib] (partner 0.25 µM)
Summary of the method: as §1

[2] = compound: COC1=CC=C(C=C1)CN2C=CC3=C2C=C(C=C3)C(=O)NO + C[C@@H](Oc1cc(-c2cnn(C3CCNCC3)c2)cnc1N)c1c(Cl)ccc(F)c1Cl [Crizotinib] (partner 1 µM)
Summary of the method: as §1

[3] = compound: COC1=CC=C(C=C1)CN2C=CC3=C2C=C(C=C3)C(=O)NO + C[C@]1(O)C[C@@H](c2nc(-c3ccc4ccc(-c5ccccc5)nc4c3)c3c(N)nccn32)C1 [Linsitinib] (partner 1 µM)
Summary of the method: as §1

Row | Cell Line | relative viability (Veliparib + Pictilisib; first compound 0.02 µM) | relative viability (Veliparib + Pictilisib; first compound 0.06325 µM) | relative viability (Veliparib + Pictilisib; first compound 0.2 µM) | relative viability (Veliparib + Pictilisib; first compound 0.6325 µM) | relative viability (Veliparib + Pictilisib; first compound 2 µM) | relative viability ([1]; first compound 0.08 µM) | relative viability ([1]; first compound 0.253 µM) | relative viability ([1]; first compound 0.8 µM) | relative viability ([1]; first compound 2.53 µM) | relative viability ([1]; first compound 8 µM) | relative viability ([2]; first compound 0.08 µM) | relative viability ([2]; first compound 0.253 µM) | relative viability ([2]; first compound 0.8 µM) | relative viability ([2]; first compound 2.53 µM) | relative viability ([2]; first compound 8 µM) | relative viability ([3]; first compound 0.08 µM) | relative viability ([3]; first compound 0.253 µM) | relative viability ([3]; first compound 0.8 µM) | relative viability ([3]; first compound 2.53 µM) | relative viability ([3]; first compound 8 µM)
1 | NCI-H727 | 0.195 | 0.33 | 0.433 | 0.296 | 0.431 | 0.792 | 0.951 | 1.31 | 0.819 | 0.836 | 0.578 | 0.945 | 0.98 | 0.71 | 0.592 | 0.214 | 0.355 | 0.298 | 0.256 | 0.298
2 | NCI-H2405 |  | 0.46 | 0.456 | 0.468 | 0.308 | 1.01 | 1.06 | 1.07 | 1.09 | 1.02 | 0.649 | 0.865 | 0.87 | 0.925 | 0.819 | 0.66 | 0.932 | 0.915 | 0.915 | 0.794
3 | RERF-LC-KJ | 0.59 | 0.529 | 0.592 | 0.563 | 0.454 | 0.639 | 0.862 | 0.915 | 0.947 | 0.917 | 0.618 | 0.756 | 0.864 | 0.816 | 0.814 | 0.763 | 0.883 | 0.867 | 0.901 | 0.945
4 | NCI-H1792 | 0.322 | 0.212 | 0.301 | 0.263 | 0.332 |  |  |  |  |  | 0.969 | 0.905 | 1.01 | 0.918 | 0.697 | 0.535 | 0.62 | 0.636 | 0.539 | 0.425
5 | NCI-H1395 |  | 0.516 | 0.557 | 0.675 | 0.524 | 0.916 | 0.949 | 0.99 | 1.04 | 0.99 |  |  |  |  |  | 0.773 | 1.28 | 1.11 | 1.08 | 0.918
6 | ChaGo-K-1 |  | 0.55 | 0.86 | 0.914 | 0.718 |  | 0.932 | 0.898 | 0.802 | 0.869 |  | 1.24 | 1.06 | 1.09 | 0.926 |  |  |  |  | 
7 | NCI-H2170 | 0.328 | 0.345 | 0.314 | 0.346 | 0.347 | 0.978 | 0.961 | 0.994 | 1.03 | 1.02 | 0.938 | 1.19 | 1.17 | 1.26 | 1.12 |  |  |  |  | 
8 | HCC-44 | 0.63 | 0.566 | 0.577 | 0.544 | 0.644 |  |  |  |  |  | 0.746 | 0.781 | 0.824 | 0.852 | 0.815 | 0.568 | 0.69 | 0.681 | 0.705 | 0.637
9 | NCI-H1793 | 0.375 | 0.306 | 0.343 | 0.261 | 0.356 |  | 0.732 | 0.63 | 0.656 | 0.63 |  |  |  |  |  | 0.934 | 0.941 | 1.09 | 0.976 | 0.86
10 | SW 900 |  |  |  |  |  | 0.746 | 0.822 | 0.908 | 0.828 | 0.719 |  |  |  |  |  |  |  |  |  | 
11 | NCI-H1650 |  | 0.507 | 0.61 | 0.519 | 0.566 | 0.764 | 1.14 | 1.29 | 1.27 | 0.766 | 0.902 | 0.982 | 1.05 | 0.915 | 0.693 |  |  |  |  | 
